Test: Human HepG2 cell viability assay in 384 well format
Assay type: toxicity, cell-based
Design: dose 125 nL, time 70.5 hour; cytotoxicity at 70.5 h: concentration not given beside the values
Details: HepG2 cells, read-out: Inhibition

CCC(=O)NC1CCCN(Cc2ccc(-n3ccnc3)cc2)C1 (stereo not given)
cytotoxicity at 70.5 h: -4.83%

O=C(CCc1ccco1)Nc1cccc(S(=O)(=O)C(F)F)c1
cytotoxicity at 70.5 h: -9.11%

O=C(c1ccc2c(c1)[nH]c(=O)n2C1CCCC1)N1CCCSCC1
cytotoxicity at 70.5 h: -8.62%

COc1ccc(C(C)N2CCC(NS(C)(=O)=O)CC2)cc1Cl (stereo not given)
cytotoxicity at 70.5 h: 10.5%

Cc1nn(C)c(C)c1C1CCCN1Cc1cn2ccsc2n1 (stereo not given)
cytotoxicity at 70.5 h: -0.408%

COc1cccc(C(O)CN2CCN(C(=O)CCC(C)C)CC2)c1 (stereo not given)
cytotoxicity at 70.5 h: 9.11%

CC(C)N(CCNC(=O)c1[nH]nc2ccc(I)cc12)C(C)C
cytotoxicity at 70.5 h: -1.97%

Cc1cc(C)cc(NC(=O)N(CCC#N)CCCN(C)C)c1
cytotoxicity at 70.5 h: -5.53%

COc1cc(-c2noc(C(CC(C)C)N3CCCCC3=O)n2)ccn1 (stereo not given)
cytotoxicity at 70.5 h: -2.9%

CC(C)(C#N)C(=O)Nc1nccn1Cc1ccc(Br)cc1
cytotoxicity at 70.5 h: 11.2%

COC1CCN(C(=O)c2nn(-c3ccc(C(C)C)cc3)cc2O)CC1
cytotoxicity at 70.5 h: 10.9%

Cc1nn(C)c(Cl)c1C1CCCN1Cc1cn2ccsc2n1 (stereo not given)
cytotoxicity at 70.5 h: -1.16%

CC(=O)N1CCCCCC1C1CCN(Cc2nc(C3CC3)no2)CC1 (stereo not given)
cytotoxicity at 70.5 h: 0.683%

OCC(O)CSCc1cn(-c2ccc(F)c(Cl)c2)nn1 (stereo not given)
cytotoxicity at 70.5 h: -7.46%

OCC(O)CSCc1cn(-c2ccc(Cl)c(Cl)c2)nn1 (stereo not given)
cytotoxicity at 70.5 h: -5.28%

Cc1ccc(-c2nc(CN(Cc3ccco3)C3CCS(=O)(=O)C3)cs2)o1 (stereo not given)
cytotoxicity at 70.5 h: 15.2%

Cc1cc(NC(=O)Cn2ccccc2=O)n(C)n1
cytotoxicity at 70.5 h: -11.7%

O=C(NCc1ccc(Cl)s1)c1ccc(N2CCOC2=O)cc1
cytotoxicity at 70.5 h: -7.09%

CC(NC(=O)CN1CCCC1=O)c1ccc(Cl)s1 (stereo not given)
cytotoxicity at 70.5 h: -9.58%

CC(NC(=O)NCCCN1CCCC1=O)c1ccc(Cl)s1 (stereo not given)
cytotoxicity at 70.5 h: -14.2%

N#Cc1ccc(N2CCCN(CC(=O)N3CCC3)CC2)cc1
cytotoxicity at 70.5 h: -2.99%

CCNC(=O)CN(CC)Cc1nc2c(F)cccc2n1CC
cytotoxicity at 70.5 h: 21.7%

Cc1cnn(C2CCCN(C(=O)Cn3ccc(=O)n(C)c3=O)C2)c1 (stereo not given)
cytotoxicity at 70.5 h: -1.04%

Cc1ccccc1C1(CNC(=O)c2cccc(S(C)(=O)=O)c2)CC1
cytotoxicity at 70.5 h: 20.2%

O=C(CCC(=O)c1ccccc1)NC1(C(=O)NCC2CC2)CCCC1
cytotoxicity at 70.5 h: -9.03%

O=C(Cc1cccs1)NC1(C(=O)NCC2CC2)CCCC1
cytotoxicity at 70.5 h: -7.33%

Cc1noc(-c2cccnc2N(C)Cc2cscn2)n1
cytotoxicity at 70.5 h: -5.46%

Cc1c(C2NC3(CCCC3)C(=O)N2CC2CC2)cc(C#N)n1C (stereo not given)
cytotoxicity at 70.5 h: -8.72%

CC(=O)Nc1cccc(Cn2nc(C)nc2C)c1
cytotoxicity at 70.5 h: -6.2%

Cc1noc(-c2cccnc2N(C)Cc2ccc([S+](C)[O-])cc2)n1 (stereo not given)
cytotoxicity at 70.5 h: -3.37%

c1ccc(CC2(CNCc3ncc[nH]3)CCC2)cc1
cytotoxicity at 70.5 h: -2.49%

CCN1C(=O)C2(CCCCC2)NC1c1cc(C#N)n(C)c1C (stereo not given)
cytotoxicity at 70.5 h: -8.35%

N#Cc1ccc(CN(CC(N)=O)C2CCCC2)c(Br)c1
cytotoxicity at 70.5 h: -6.26%

Cc1csc(C2(NCc3nc(-c4ccco4)no3)CCCC2)n1
cytotoxicity at 70.5 h: -12.8%

Cc1ncsc1C(=O)N1CC(C)Sc2ccccc21 (stereo not given)
cytotoxicity at 70.5 h: -8.57%

Cc1nc(CN2CCCC(Nc3ncnc4ccccc34)C2)no1 (stereo not given)
cytotoxicity at 70.5 h: -5.36%

CN(Cc1ccc(Cl)s1)C(=O)CN(C)C1CCCc2ccccc21 (stereo not given)
cytotoxicity at 70.5 h: -4.74%

O=C(Cc1cccc(F)c1)N1CCc2ncnc(NC3CCC3)c2CC1
cytotoxicity at 70.5 h: 2.52%

O=C(NCc1cccc(F)c1)N1CCc2ncnc(NC3CC3)c2CC1
cytotoxicity at 70.5 h: 1.62%

CO[C@H]1CO[C@@]2(CCCN(C(=O)N(C)C)C2)C1
cytotoxicity at 70.5 h: -3.18%

CCS(=O)(=O)N1CCC2(CC1)c1ncc(-c3cccnc3)n1CCN2C
cytotoxicity at 70.5 h: -5.3%

CS(=O)(=O)N1CC[C@H]2OCC[C@@]2(C(=O)NCC2CC2)C1
cytotoxicity at 70.5 h: -7.08%

CC(C)n1c2ccccc2c2c1cc(C(=O)NCCO)n2C(=O)N(C)C
cytotoxicity at 70.5 h: -4.08%

CC(=O)N1CCO[C@@H]2CN(C(=O)NCc3ccccc3)CC[C@@H]2C1
cytotoxicity at 70.5 h: 9.54%

CS(=O)(=O)N1CC[C@H]2OCC[C@@]2(C(=O)NCCc2ccccn2)C1
cytotoxicity at 70.5 h: -7.11%

— ChEMBL document CHEMBL3507680, “University of Dundee, Gates Library screen for HepG2 cell viability”
